The text below walks through data of ChEMBL document CHEMBL3045669, “Evaluation of crude toxin and metabolite produced by Helminthosporium gramineum Rabenh for the control of rice sheath blight in paddy fields” (2007).

Common to all, as to type: functional
What all share (conditions): read-out: GI

The test system of assay [1] is Rhizoctonia solani. Description: Growth inhibition of Rhizoctonia solani AG-1 IA at 200 ug/ml after 24 hr.
Assay [2] deals with Rhizoctonia solani. The experiment in a line: Growth inhibition of Rhizoctonia solani AG-1 IA at 10 ug/ml after 24 hr.
The subject of assay [3] is Rhizoctonia solani. The experiment in a line: Growth inhibition of Rhizoctonia solani AG-1 IA at 50 ug/ml after 24 hr.
Assay [4] concerns Rhizoctonia solani. Description: Growth inhibition of Rhizoctonia solani AG-1 IA at 25 ug/ml after 24 hr.
For assay [5], the system named is Rhizoctonia solani. The experiment in a line: Growth inhibition of Rhizoctonia solani AG-1 IA at 100 ug/ml after 24 hr.
Assay [6] concerns Rhizoctonia solani. The experiment in a line: Growth inhibition of Rhizoctonia solani AG-1 IA at 1 ug/ml after 24 hr.

Turning to `OCC1=C[C@H](N[C@H]2C[C@H](CO)[C@@H](O[C@@H]3O[C@H](CO)[C@@H](O)[C@H](O)[C@H]3O)[C@H](O)[C@H]2O)[C@H](O)[C@@H](O)[C@@H]1O` [VALIDAMYCIN], the inhibition of growth at 200 µg/mL in the assay on Rhizoctonia solani [1] turned out to be 45.2%. Further, the inhibition of growth at 10 µg/mL with Rhizoctonia solani [2] stood at 5.7%. For the same compound, the inhibition of growth at 50 µg/mL in the assay on Rhizoctonia solani [3] turned out to be 22.6%. Moreover, the inhibition of growth at 25 µg/mL with Rhizoctonia solani [4] is 17%. In the assay on Rhizoctonia solani [5], the inhibition of growth at 100 µg/mL was 34%.

Take `CC(C)=C[C@H]1C[C@H](C)[C@]2(CC[C@]3(C)C[C@H]4[C@H](C(=O)C[C@@]4(C)O)/C(C=O)=C\C[C@H]32)O1` [OPHIOBOLIN A]: in the assay with Rhizoctonia solani [2], the inhibition of growth at 10 µg/mL was 85.9%. For the same compound, the inhibition of growth at 50 µg/mL in the assay with Rhizoctonia solani [3] was found to be 100%. Besides, in the assay on Rhizoctonia solani [4], the inhibition of growth at 25 µg/mL is 100%. In the assay with Rhizoctonia solani [6], the inhibition of growth at 1 µg/mL stood at 70.2%.
